Common to all, as to format: functional
For test [1], the system named is Klebsiella pneumoniae. Put plainly: Antibacterial activity against multidrug-resistant Klebsiella pneumoniae ATCC 700603 assessed as zone of inhibition by disc diffusion method. (Agar diffusion results depend on both activity and mobility in agar.); further: test concentration or dose not given here
In test [2] the test system is Enterobacter cloacae. The test is described as follows: Antibacterial activity against Enterobacter cloacae ATCC 23355 assessed as zone of inhibition by disc diffusion method. Further: test concentration or dose not given here.
For test [3], the system named is Escherichia coli. Put plainly: Antibacterial activity against beta-lactam resistant Escherichia coli BAA 2326 assessed as zone of inhibition by disc diffusion method. Further: test concentration or dose not given here.
The subject of test [4] is Acinetobacter baumannii. The test is described as follows: Antibacterial activity against multidrug-resistant Acinetobacter baumannii BAA 1605 assessed as zone of inhibition by disc diffusion method. Further: test concentration or dose not given here.
Test [5] deals with Bacillus anthracis. Put plainly: Antibacterial activity against Bacillus anthracis Sterne 34F2 assessed as zone of inhibition by disc diffusion method.
Test [6] deals with Enterococcus faecium. Put plainly: Antibacterial activity against vancomycin-resistant Enterococcus faecium ATCC 700221 assessed as zone of inhibition by disc diffusion method. Further: test concentration or dose not given here.
The subject of test [7] is Enterococcus faecalis. The test is described as follows: Antibacterial activity against vancomycin-susceptible Enterococcus faecalis ATCC 29212 assessed as zone of inhibition by disc diffusion method. Further: test concentration or dose not given here.
For test [8], the system named is Staphylococcus aureus. Put plainly: Antibacterial activity against methicillin-susceptible Staphylococcus aureus ATCC 25923 assessed as zone of inhibition by disc diffusion method. Further: test concentration or dose not given here.
The subject of test [9] is Staphylococcus aureus. The test is described as follows: Antibacterial activity against community acquired methicillin-resistant Staphylococcus aureus BAA 1747 assessed as zone of inhibition by disc diffusion method. Further: test concentration or dose not given here.
In test [10] the test system is Staphylococcus aureus. Put plainly: Antibacterial activity against hospital acquired methicillin-resistant Staphylococcus aureus ATCC 43300 assessed as zone of inhibition by disc diffusion method. Further: test concentration or dose not given here.
In test [11] the test system is Staphylococcus aureus. The test is described as follows: Antibacterial activity against heterogeneous vancomycin-intermediate resistant Staphylococcus aureus Mu3 ATCC 700698 assessed as zone of inhibition by disc diffusion method. Further: test concentration or dose not given here.
For test [12], the system named is Staphylococcus aureus. The test is described as follows: Antibacterial activity against vancomycin-intermediate resistant Staphylococcus aureus Mu50 ATCC 700699 assessed as zone of inhibition by disc diffusion method. Further: test concentration or dose not given here.
Test [13] concerns Staphylococcus aureus. Put plainly: Antibacterial activity against vancomycin-resistant Staphylococcus aureus HIP11714 assessed as zone of inhibition by disc diffusion method. Further: test concentration or dose not given here.
In test [14] the test system is Staphylococcus epidermidis. The test is described as follows: Antibacterial activity against Staphylococcus epidermidis ATCC 14990 assessed as zone of inhibition by disc diffusion method. Further: test concentration or dose not given here.
In test [15] the test system is Acinetobacter baumannii. Put plainly: Antibacterial activity against Acinetobacter baumannii ATCC 19606 assessed as zone of inhibition by disc diffusion method. Further: test concentration or dose not given here.
Test [16] concerns Pseudomonas aeruginosa. Put plainly: Antibacterial activity against Pseudomonas aeruginosa ATCC 15422 assessed as zone of inhibition by disc diffusion method. Further: test concentration or dose not given here.

As to `CSSc1ccccn1`, the “diameter of the inhibition zone (DIZ)” value came to 0 mm in test [1]; 10 mm in test [2]; 12 mm in test [3]; 15 mm in test [4]; 48 mm in [5]; 0 mm in [6]. Besides, the “diameter of the inhibition zone (DIZ)” value in test [7] was found to be 23 mm; in test [8], 20 mm; in test [9], 21 mm; in [10], 25 mm; in [11], 12 mm; in test [12], 13 mm. For the same molecule, the “diameter of the inhibition zone (DIZ)” value in [13] came out at 12 mm; in [14] it was 21 mm; in test [15] it was 21 mm; in test [16] it was 0 mm.

Turning to `CC(C)CSSc1ccccn1`, the “diameter of the inhibition zone (DIZ)” value came out at 0 mm in test [1]; 0 mm in test [2]; 0 mm in test [3]; 0 mm in [4]; 50 mm in [5]; 0 mm in [6]. The “diameter of the inhibition zone (DIZ)” value in test [7], in [8], in test [9], in test [10], in [11] and in test [12] was 0 mm in each case. Also, the “diameter of the inhibition zone (DIZ)” value amounted to 0 mm in [13], 40 mm in test [14], 0 mm in test [15] and 0 mm in test [16].

In the case of `CCC(C)SSc1ccccn1` (stereo not given), the “diameter of the inhibition zone (DIZ)” value in [1] was 0 mm; in [2], 0 mm; in [3] it was 0 mm; in test [4] it was 0 mm; in test [5], 23 mm; in [6], 0 mm. Further, the “diameter of the inhibition zone (DIZ)” value in test [7], in test [8], in test [9], in test [10], in [11] and in test [12] was 0 mm in each case. The “diameter of the inhibition zone (DIZ)” value in [13] amounted to 0 mm; in test [14] it was 20 mm; in test [15], 0 mm; in test [16] it was 0 mm.

Take `CC(C)CCSSc1ccccn1`: the “diameter of the inhibition zone (DIZ)” value in [1] is given as 0 mm; in test [2], 0 mm; in [3], 0 mm; in test [4], 0 mm; in [5] it was more than 50 mm; in [6] it was 0 mm. Moreover, the “diameter of the inhibition zone (DIZ)” value in [7] turned out to be 0 mm; in [8] it was 0 mm; in [9], 0 mm; in test [10], 0 mm; in [11], 11 mm; in test [12], 12 mm. In addition, the “diameter of the inhibition zone (DIZ)” value in test [13] was 14 mm; in test [14], more than 50 mm; in test [15] it was 0 mm; in test [16], 0 mm.

Consider `CCCCSSc1ccccn1`, for which the “diameter of the inhibition zone (DIZ)” value in test [1] was 0 mm; in [2] it was 9 mm; in [3], 0 mm; in test [4], 0 mm; in [5], 48 mm; in [6], 0 mm. The “diameter of the inhibition zone (DIZ)” value in [7] was 15 mm; in test [8], 0 mm; in test [9], 0 mm; in [10], 0 mm; in test [11], 0 mm; in [12], 0 mm. For the same molecule, the “diameter of the inhibition zone (DIZ)” value in test [13] was 0 mm; in test [14], 22 mm; in [15], 0 mm; in test [16], 0 mm.

For the molecule `c1ccc(SSC2CCCCC2)nc1`, the “diameter of the inhibition zone (DIZ)” value amounted to 0 mm in [1]; 0 mm in test [2]; 0 mm in test [3]; 0 mm in [4]; 26 mm in test [5]; 0 mm in test [6]. The “diameter of the inhibition zone (DIZ)” value in test [7] came to 0 mm; in test [8] it was 11 mm; in [9] it was 14 mm; in [10] it was 12 mm; in [11] it was 18 mm; in test [12], 0 mm. Further, the “diameter of the inhibition zone (DIZ)” value in test [13] was 0 mm; in test [14], 24 mm; in test [15], 0 mm; in test [16] it was 0 mm.

For the molecule `O=C(O)CCSSc1ccccn1`, the “diameter of the inhibition zone (DIZ)” value in [1] came out at 0 mm; in test [2], 0 mm; in test [3] it was 0 mm; in test [4] it was 0 mm; in test [5] it was 24 mm; in test [6] it was 0 mm. Also, the “diameter of the inhibition zone (DIZ)” value turned out to be 0 mm in test [7]; 16 mm in test [8]; 14 mm in [9]; 14 mm in [10]; 15 mm in [11]; 15 mm in test [12]. Moreover, the “diameter of the inhibition zone (DIZ)” value in [13] turned out to be 21 mm; in [14], 10 mm; in test [15], 0 mm; in test [16], 0 mm.

Consider `CC(C)SSc1ccccn1`, for which the “diameter of the inhibition zone (DIZ)” value in test [1], in [2], in test [3], in [4], in test [5] and in test [6] was 0 mm each time. The “diameter of the inhibition zone (DIZ)” value in [7], in [8], in test [9], in [10], in test [11] and in test [12] was 0 mm throughout. Also, the “diameter of the inhibition zone (DIZ)” value in test [13] came to 0 mm; in [14], 13 mm; in [15], 0 mm; in [16] it was 0 mm.

Regarding `CCCCCCCCCCSSc1ccccn1`, the “diameter of the inhibition zone (DIZ)” value in test [1] is listed as 0 mm; in [2] it was 0 mm; in test [3], 0 mm; in test [4], 0 mm; in test [5] it was 28 mm; in test [6], 9 mm. The “diameter of the inhibition zone (DIZ)” value was found to be 9 mm in test [7]; 12 mm in test [8]; 15 mm in [9]; 14 mm in test [10]; 0 mm in test [11]; 11 mm in test [12]. Besides, the “diameter of the inhibition zone (DIZ)” value in [13] was 11 mm; in test [14], 26 mm; in test [15], 0 mm; in [16], 0 mm.

With `c1ccc(SSC2CCCC2)nc1`, the “diameter of the inhibition zone (DIZ)” value was 0 mm in [1]; 0 mm in test [2]; 0 mm in [3]; 0 mm in test [4]; 22 mm in test [5]; 0 mm in [6]. Moreover, the “diameter of the inhibition zone (DIZ)” value is 0 mm in test [7]; 9 mm in test [8]; 16 mm in [9]; 14 mm in test [10]; 11 mm in [11]; 0 mm in [12]. The “diameter of the inhibition zone (DIZ)” value in [13] was found to be 0 mm; in test [14], 25 mm; in test [15], 0 mm; in test [16] it was 0 mm.

(Values after ChEMBL document CHEMBL4715813, “Allicin-inspired pyridyl disulfides as antimicrobial agents for multidrug-resistant Staphylococcus aureus” (Eur J Med Chem, 2018).)
